Test results as given in article PMC4227753, “Mycobacterium smegmatis DinB2 misincorporates deoxyribonucleotides and ribonucleotides during templated synthesis and lesion bypass” (Nucleic Acids Research, 2014).

Target: T1, DinB2 (Mycolicibacterium smegmatis, UniProt A0QR77)
T1 construct: gene dinB
Assay: single-turnover primer extension, kobs vs [NTP], one-site fit
Assay type: biochemical
Settings: 5 mM MgCl2, 10 mM Tris-HCl pH 7.5, 37 C, 1 uM DinB2, 50 nM 13-mer/18-mer primer-template

T1 sequence (A0QR77 entry or part of it): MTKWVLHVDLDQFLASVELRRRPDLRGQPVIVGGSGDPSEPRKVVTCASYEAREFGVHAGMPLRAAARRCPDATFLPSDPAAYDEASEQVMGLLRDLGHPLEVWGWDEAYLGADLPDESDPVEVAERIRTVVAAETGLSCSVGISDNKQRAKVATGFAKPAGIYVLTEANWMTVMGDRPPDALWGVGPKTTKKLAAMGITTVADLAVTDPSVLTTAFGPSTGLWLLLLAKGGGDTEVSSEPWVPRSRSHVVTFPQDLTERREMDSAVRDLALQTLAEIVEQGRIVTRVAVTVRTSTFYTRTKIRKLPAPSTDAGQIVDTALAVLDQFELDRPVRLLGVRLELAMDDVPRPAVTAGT

Row | Structure (SMILES) | Kd (mispair: opposite template dT (oligo-dT5 tail)) [µM] | Kd (mispair: opposite template dC (oligo-dC5 tail)) [µM]
1 | Nc1nc2c(ncn2[C@@H]2O[C@H](COP(=O)(O)OP(=O)(O)OP(=O)(O)O)[C@@H](O)[C@H]2O)c(=O)[nH]1 [GTP] | 386 | 
2 | O=c1ccn([C@@H]2O[C@H](COP(=O)(O)OP(=O)(O)OP(=O)(O)O)[C@@H](O)[C@H]2O)c(=O)[nH]1 [UTP] |  | 412
